From US6423741B1, “Anti-microbial composition and method for producing the same” (priority 1998, dated 2002)
≈ marks a conversion by molar mass, not a printed value. Like-named read-outs stand apart in the source and are kept apart here.

Columns and labels:
[1] = system: Mycobacterium smegmatis (Wild type); experiment: Frequency of spontaneous resistance on poison agar with nalidixic acid; assay type: cell-based; settings: 50 μg/ml nalidixic acid poison agar
Protocol: (§1) In an experiment, the applicants first determined the frequency of spontaneous mutations in the bacteria Escherchia coil (Kumar, S. 1976. Journal of Bacteriology, 125: 545-555.) and Mycobacterium smegmatis (Snapper, S. B., Melton, R. E., Mustafa, S., Kieser, T. and Jacobs, W. R. 1990. Molecular Microbiology. 4:1911-1919.) leading to subsequent resistance development through selection in the presence of these drugs. Known titers of broth cultures of the bacteria were diluted and plated on poison agar medium containing 50 μg/ml nalidixic acid, and the resistant colonies thus developed were counted to estimate the frequency of drug resistance (Nal) development (Table 1).

[2] = system: Escherchia coli (Wild type); experiment: as above; assay type: cell-based; settings: 50 μg/ml nalidixic acid poison agar
Protocol: as §1

[3] = system: Escherchia coli mutant A1; experiment: Minimum inhibitory concentration of nalidixic acid; assay type: cell-based
Protocol: (§2) To determine the correlation between nalidixic acid and α-arteether sensitivity, the applicants selected Escherchia coli cultures which were resistant to nalidixic acid at varying degrees (concentrations). Based on the minimal inhibitory concentration of nalidixic acid, Escherchia coli mutants were grouped as highly sensitive (MIC less than or equal to 10 μg/ml), resistant (MIC 10 to 200 μg/ml), […] (MIC more than or equal to 200 μg/ml). These strains were then tested for their sensitivity against α-arteether by estimating their growth (Absorbance at 620 nano meter wavelength of light) in presence of increasing concentrations of α-arteether. The absorbance data was converted to percent growth by considering the absorbance in control as 100%. The growth was then quantified as follows: 1.) greater than 80% growth : the mutant is highly resistant to α-arteether; 2.) 20 to 80% growth : the mutant is moderately resistant to α-arteether; 3.) less than 20% growth : the mutant is sensitive to α-arteether. […] In other words Escherchia coli mutants most resistant to nalidixic acid are most efficiently killed by α-arteether (Table 4) and vice versa.

[4] = system: Escherchia coli mutant A2; experiment: Minimum inhibitory concentration of nalidixic acid; assay type: cell-based
Protocol: as §2

[5] = system: Escherchia coli mutant A4; experiment: Minimum inhibitory concentration of nalidixic acid; assay type: cell-based
Protocol: as §2

[6] = system: Escherchia coli mutant A3; experiment: Minimum inhibitory concentration of nalidixic acid; assay type: cell-based
Protocol: as §2

E. coli Wildtype = experiment: Resistance study, combination treatment vs mixed mutant cultures (optical density at 620 nm); assay type: cell-based
Description: (§3) Continuing with the experimentation the applicants analyzed the growth of the mutant strains individually and upon co-cultivation compared to the wild type in presence of the compounds individually and in combination.

E. coli (Wildtype) = experiment: Disc sensitivity of E. coli strains; assay type: cell-based; settings: wild type strains; no dose stated
Description: (§4) Since pathogens always try to counter the drug by genetically modifying itself through mutation(s) in the region of the drug target gene, it is necessary to kill those mutant(s) resistant cells for effective drug management. With this rationale, the applicants evaluated a selected drug resistant mutant strain (Ml) for nalidixic acid (wild type strains being sensitive to nalidixic acid). This mutant strain developed from wild type was defective in Gyr A subunit confirmed by mobilizing a plasmid bearing a wild type gyr A gene. […] Similarly a second mutant (M2) developed from the gyr A^− mutant strain (Nal^r) became sensitive to nalidixic acid which being resistant to α arteether (Table 3). It was noted that invariably among all the tested strains, those resistant to nalidixic acid were sensitive to α arteether and the strains sensitive to nalidixic acid were resistant to cc arteether. […] This is so, because the resistance to nalidixic acid is developed by gyr A mutation and the mutants will be killed by α arteether while, the α-arteether resistant strains will automatically become nalidixic acid sensitive and thus will be killed by nalidixic acid and this way all the spontaneous resistant bacteria could be contained.

M2 (Mutant) = experiment: Disc sensitivity of E. coli strains; assay type: cell-based; settings: second mutant (M2) developed from gyr A− mutant; no dose stated
Description: as §4

[7] = system: M1 (Mutant), gyr A− mutant; experiment: Disc sensitivity of E. coli strains; assay type: cell-based; settings: gyr A− mutant (M1) developed from wild type; no dose stated
Description: as §4

M1 + M2 (co-cultivation) = experiment: Resistance study, combination treatment vs mixed mutant cultures (optical density at 620 nm); assay type: cell-based, E. coli
Description: as §3

M1 = experiment: as above; assay type: cell-based, E. coli
Description: as §3

M2 = experiment: as above; assay type: cell-based, E. coli
Description: as §3

Activity at different pH = settings: pH (neutral)
Protocol: Further, it is worth noting here that the said compounds of the invention are already in use for human consumption and the safety data of applications of the compounds are already known. As a known example of prior art (Asthana, O. P, Srivastava, J. S and Valecha, N., 1997. Current status of the artemisinin derivatives in the treatment of malaria with focus on arteether. Journal of Parasitic Diseases. 21: 1-12.), α/β arteether mixture is given at 150 mg doses (one dose per day, for 3 days) as intramuscular injection for treatment of drug resistant and cerebral malaria cases. The injections in the mentioned preparation are prepared in neutralized vegetable oil. Both the compounds of invention that is, α arteether and the quinolones have shown the best activities at pH 7.0 (neutral) in our experiments. Thus, the composition of this invention can be used to treat bacterial infections, particularly the cases where the emergence of drug resistance is known to have high incidence level. The said composition/composition can be employed for prevention of resistance development through random mutations occurring in bacteria against antibiotics. Various classes of quinolone drugs thus can be administered along with α-arteether in form of injection by suspending the compound in the neutralised vegetable oil. […]

[8] = system: Escherchia coli mutant A1; experiment: Growth (absorbance at 620 nm) at increasing concentrations of α-arteether; assay type: cell-based
Protocol: as §2

[9] = system: Escherchia coli mutant A2; experiment: as above; assay type: cell-based
Protocol: as §2

[10] = system: Escherchia coli mutant A4; experiment: as above; assay type: cell-based
Protocol: as §2

[11] = system: Escherchia coli mutant A3; experiment: as above; assay type: cell-based
Protocol: as §2

[12] = system: gyr mutant (Nal^r) strains of E.coli; settings: earlier invention; cited from earlier work
Escherchia coli (Nal′) = experiment: Frequency of spontaneous resistance on plates with α-arteether; assay type: cell-based; settings: 1000 μg/ml α-arteether
Protocol: (§5) Further to determine the frequency of spontaneous resistant mutants in Escherchia coil and Mycobacterium smegmatis for α-arteether, the applicants used the nalidixic acid resistant mutants from the earlier example as the wild type strains since those were sensitive to α-arteether to isolate α-arteether resistant colonies. Known titers of broth cultures of the mutant (Nal) bacteria were diluted and plated in petriplates containing 1000 μg/ml α-arteether, and the resistant colonies thus developed were counted to determine the frequencies (Table 2).

[13] = system: Mycobacterium smegmatis (Nal′); experiment: as above; assay type: cell-based; settings: 1000 μg/ml α-arteether
Protocol: as §5

[14] = system: wild type (Nal^s) strains of E.coli; settings: earlier invention; cited from earlier work
[15] = read-out: Minimum inhibitory concentration of nalidixic acid
[16] = read-out: Group by minimal inhibitory concentration of nalidixic acid

CCn1cc(C(=O)O)c(=O)c2ccc(C)nc21 [nalidixic acid]
Frequency of spontaneous resistance developed against Nalidixic acid [1]: 1.0 × 10^−10
Frequency of spontaneous resistance developed against Nalidixic acid [2]: 7.1 × 10^−9
Group by minimal inhibitory concentration of nalidixic acid ([3]; mutant A1): sensitive)
MIC [3, 15]: < 4 µg/mL
MIC [4, 16]: 10 to 200 µg/mL (≈ 43.1 to 861 µM)
MIC [4, 15]: 37.5 µg/mL (≈ 161 µM)
MIC [5, 16]: > 200 µg/mL
MIC [5, 15]: > 300 µg/mL
MIC [6, 16]: 10 to 200 µg/mL (≈ 43.1 to 861 µM)
MIC [6, 15]: 150 µg/mL (≈ 646 µM)
Optical density at 620 nanometer (E. coli Wildtype; nalidixic acid 50 μg/ml): 0.000
Optical density at 620 nanometer (E. coli Wildtype; nalidixic acid 300 μg/ml): 0.000
Sensitivity of the strain (E. coli (Wildtype)): sensitive
Sensitivity of the strain (M2 (Mutant)): sensitive
Sensitivity of the strain [7]: resistant
Optical density at 620 nanometer (M1 + M2 (co-cultivation); nalidixic acid 50 μg/ml): 0.910
Optical density at 620 nanometer (M1 + M2 (co-cultivation); nalidixic acid 300 μg/ml): 0.920
Optical density at 620 nanometer (M1; nalidixic acid 50 μg/ml): 0.950
Optical density at 620 nanometer (M1; nalidixic acid 300 μg/ml): 0.960
Optical density at 620 nanometer (M2; nalidixic acid 50 μg/ml): 0.000
Optical density at 620 nanometer (M2; nalidixic acid 300 μg/ml): 0.000

CCO[C@@H]1O[C@@H]2O[C@]3(C)CC[C@H]4[C@H](C)CC[C@@H]([C@H]1C)[C@@]24OO3 [α-arteether]
Optical density at 620 nanometer (E. coli Wildtype; α arteether 400 μg/ml): 0.890
Optical density at 620 nanometer (E. coli Wildtype; α arteether 800 μg/ml): 0.90
Sensitivity of the strain (M2 (Mutant)): resistant
Sensitivity of the strain [7]: sensitive
pH of best activities (Activity at different pH): 7.0
Growth (absorbance at 620 nm) ([8]; 400 μg/ml α-arteether): 0.858
Percent growth (absorbance in control as 100%) ([8]; 400 μg/ml α-arteether): (93%)
Growth (absorbance at 620 nm) ([8]; 800 μg/ml α-arteether): 0.854
Percent growth (absorbance in control as 100%) ([8]; 800 μg/ml α-arteether): (93%)
Growth (absorbance at 620 nm) ([8]; 1200 μg/ml α-arteether): 0.817
Percent growth (absorbance in control as 100%) ([8]; 1200 μg/ml α-arteether): (89%)
Growth (absorbance at 620 nm) ([9]; 400 μg/ml α-arteether): 0.607
Percent growth (absorbance in control as 100%) ([9]; 400 μg/ml α-arteether): (66%)
Growth (absorbance at 620 nm) ([9]; 800 μg/ml α-arteether): 0.539
Percent growth (absorbance in control as 100%) ([9]; 800 μg/ml α-arteether): (58%)
Growth (absorbance at 620 nm) ([9]; 1200 μg/ml α-arteether): 0.458
Percent growth (absorbance in control as 100%) ([9]; 1200 μg/ml α-arteether): (50%)
Growth (absorbance at 620 nm) ([10]; 400 μg/ml α-arteether): 0.017
Percent growth (absorbance in control as 100%) ([10]; 400 μg/ml α-arteether): (2%)
Growth (absorbance at 620 nm) ([10]; 800 μg/ml α-arteether): 0.007
Percent growth (absorbance in control as 100%) ([10]; 800 μg/ml α-arteether): (0.7%)
Growth (absorbance at 620 nm) ([10]; 1200 μg/ml α-arteether): 0.000
Percent growth (absorbance in control as 100%) ([10]; 1200 μg/ml α-arteether): (0%)
Growth (absorbance at 620 nm) ([11]; 400 μg/ml α-arteether): 0.421
Percent growth (absorbance in control as 100%) ([11]; 400 μg/ml α-arteether): (50%)
Growth (absorbance at 620 nm) ([11]; 800 μg/ml α-arteether): 0.405
Percent growth (absorbance in control as 100%) ([11]; 800 μg/ml α-arteether): (47%)
Growth (absorbance at 620 nm) ([11]; 1200 μg/ml α-arteether): 0.390
Percent growth (absorbance in control as 100%) ([11]; 1200 μg/ml α-arteether): 46%
Effectiveness against the strains [12]: effective
Optical density at 620 nanometer (M1 + M2 (co-cultivation); α arteether 400 μg/ml): 0.920
Optical density at 620 nanometer (M1 + M2 (co-cultivation); α arteether 800 μg/ml): 0.930
Optical density at 620 nanometer (M1; α arteether 400 μg/ml): 0.000
Optical density at 620 nanometer (M1; α arteether 800 μg/ml): 0.000
Optical density at 620 nanometer (M2; α arteether 400 μg/ml): 0.900
Optical density at 620 nanometer (M2; α arteether 800 μg/ml): 0.91
Frequency of spontaneous resistance developed against α-arteether (Escherchia coli (Nal′)): 1.8 × 10^−9
Frequency of spontaneous resistance developed against α-arteether [13]: 1.1 × 10^−10
Effectiveness against the strains [14]: ineffective
